Data from patent publication US9023789B2, “Amylin analogs and pharmaceutical compositions thereof” (Novo Nordisk A/S, priority 2012, dated 2015).
≈ marks a conversion by molar mass, not a printed value. Like-named read-outs stand apart in the source and are kept apart here. Numbered stars: 1 amine (or outer) side, 2 acyl side, 3 side chain; on linkers, the order of the positions; unused ones are H or OH. Bridge positions count the residues as written; N and C are the ends. Side chains are listed from the residue outwards. Peptide text beside a SMILES is read from it. * marks the point of attachment. C20 diacid = O=C(O)CCCCCCCCCCCCCCCCCCC(=O)*; γGlu = O=C(O)[C@H](CCC(=O)[*:2])N[*:1]

What was measured:
[1] = ASSAY (IV) determination of solubility; format: physicochemical
Outline: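 Solubility measured by UPLC of supernatant after centrifugation, following 18 h at room temperature. Peptide ([…] in water) was diluted 1:1 into 100 mM glycylglycine (pH 3.0, 4.0, 5.0) or bistrispropane (pH 6.0-8.0).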

[2] = molecular target: T1, human amylin receptor (membranes from Amylin 3(a)/CRE-luc cells) (Homo sapiens, UniProt O60896+P30988); assay: ASSAY (V) binding to the human amylin receptor (SPA, 125I-rat amylin); conditions: for IC50: Table 4, read-out: hAmylin-R bind IC50;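 for all read-outs here: competition binding of cell membranes (35 ng/µL) mixed with SPA beads in 384-well plates at 40 µL total volume, read by scintillation counting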
T1 construct: expressed in transfected cells
T1 sequence (P30988 25-474): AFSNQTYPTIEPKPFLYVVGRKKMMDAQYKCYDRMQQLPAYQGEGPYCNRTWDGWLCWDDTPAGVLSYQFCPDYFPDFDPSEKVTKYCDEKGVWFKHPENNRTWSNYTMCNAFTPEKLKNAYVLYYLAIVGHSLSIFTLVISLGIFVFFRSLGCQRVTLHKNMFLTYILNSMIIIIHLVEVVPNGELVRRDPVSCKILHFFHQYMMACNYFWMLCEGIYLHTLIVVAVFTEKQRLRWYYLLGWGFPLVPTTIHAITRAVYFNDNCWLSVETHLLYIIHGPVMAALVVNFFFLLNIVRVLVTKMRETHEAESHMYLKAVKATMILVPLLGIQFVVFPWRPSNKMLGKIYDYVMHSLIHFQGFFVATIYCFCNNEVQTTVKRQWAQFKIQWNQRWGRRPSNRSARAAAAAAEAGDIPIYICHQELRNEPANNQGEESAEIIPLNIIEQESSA
T1 sequence (O60896 24-148 partner): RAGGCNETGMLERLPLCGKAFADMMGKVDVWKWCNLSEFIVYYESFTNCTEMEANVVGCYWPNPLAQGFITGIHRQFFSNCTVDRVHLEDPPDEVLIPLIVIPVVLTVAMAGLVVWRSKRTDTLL

[3] = molecular target: T2, rat amylin receptor (rat calcitonin receptor + rat RAMP 3) (Rattus norvegicus, UniProt P32214+Q9JJ73); assay: ASSAY (VI) binding to the rat amylin receptor; conditions: for IC50: binding to rat amylin receptor, read-out: rAmylin-R bind IC50
T2 construct: expressed in transfected cells; host or cells: BHK tk'ts 13 (transient, FuGENE 6), membranes
T2 sequence (P32214 25-479 isoform P32214-2 limits assumed): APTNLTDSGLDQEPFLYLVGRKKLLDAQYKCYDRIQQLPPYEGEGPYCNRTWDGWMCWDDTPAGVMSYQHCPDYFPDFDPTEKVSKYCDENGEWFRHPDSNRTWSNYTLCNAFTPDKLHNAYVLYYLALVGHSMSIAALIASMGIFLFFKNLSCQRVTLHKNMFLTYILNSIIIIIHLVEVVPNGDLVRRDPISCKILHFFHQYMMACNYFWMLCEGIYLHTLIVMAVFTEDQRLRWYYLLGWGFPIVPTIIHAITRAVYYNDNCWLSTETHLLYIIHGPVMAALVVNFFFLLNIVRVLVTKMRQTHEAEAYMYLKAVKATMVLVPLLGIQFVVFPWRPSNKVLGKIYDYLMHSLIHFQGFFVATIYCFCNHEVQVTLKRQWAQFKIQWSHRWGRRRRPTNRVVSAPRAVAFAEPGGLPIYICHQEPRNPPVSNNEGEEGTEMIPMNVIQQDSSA
T2 sequence (Q9JJ73 23-147 partner): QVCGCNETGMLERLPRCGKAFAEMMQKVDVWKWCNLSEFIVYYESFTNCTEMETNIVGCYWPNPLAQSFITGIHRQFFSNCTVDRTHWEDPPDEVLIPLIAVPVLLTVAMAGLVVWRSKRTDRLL
Outline: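 The cell-membrane assay assessed binding at the rat amylin receptor. BHK tk′ts 13 cells were transfected transiently with rat calcitonin receptor, with FuGENE® 6 (Roche) as the transfection reagent, used per the manufacturer's recommendations. Approximately 48 hours after transfection the cells were harvested, and membranes were prepared for measuring binding.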

rat calcitonin receptor = molecular target: T3, rat calcitonin receptor (Rattus norvegicus, UniProt P32214); assay: ASSAY (VIII) binding to the rat calcitonin receptor; conditions: Table 7, read-out: rCTR bind IC50
T3 construct: expressed in transfected cells; host or cells: BHK tk'ts 13 (transient, FuGENE 6), membranes
T3 sequence (P32214 25-479 isoform P32214-2 limits assumed): T2 sequence (P32214 25-479 isoform P32214-2 limits assumed)
Outline: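 BHK tk′ts 13 cells, transient rat calcitonin receptor transfection; DMEM + 10% FBS; harvest ~48 h post-transfection; membrane prep.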

[4] = bistrispropane buffer, pH 6.5, read-out: Solubility pH 6.5 Concentration
[5] = bistrispropane buffer, pH 7.5, read-out: Solubility pH 7.5 Concentration
[6] = bistrispropane buffer, pH 6.0, read-out: Solubility pH 6.0 Concentration
[7] = bistrispropane buffer, pH 7.0, read-out: Solubility pH 7.0 Concentration
[8] = bistrispropane buffer, pH 8.0, read-out: Solubility pH 8.0 Concentration
[9] = glycylglycine buffer, pH 3.0, read-out: Solubility pH 3.0 Concentration
[10] = glycylglycine buffer, pH 4.0, read-out: Solubility pH 4.0 Concentration
[11] = glycylglycine buffer, pH 5.0, read-out: Solubility pH 5.0 Concentration
[12] = Table 5, selectivity, hCTR bind IC50 / hAmylin-R bind IC50
[13] = Table 5a, selectivity, hCTR bind IC50 / hAmylin-R bind IC50
[14] = Table 7, human binding selectivity, included for comparison
[15] = Table 7a (preferred compounds), human binding selectivity, included for comparison
[16] = ratio of human calcitonin receptor binding IC50 to human amylin receptor binding IC50
[17] = Table 7, rat binding selectivity, rCTR IC50 / rAmylin-R IC50
[18] = Table 7a (preferred compounds), rat binding selectivity, rCTR IC50 / rAmylin-R IC50
[19] = ratio of rCTR bind IC50 to rAmylin-R bind IC50
[20] = Table 5b, selectivity, hCTR bind IC50 / hAmylin-R bind IC50
[21] = Table 5c, selectivity, hCTR bind IC50 / hAmylin-R bind IC50

SMILES | solubility at 18 h [1, 4] | solubility at 18 h [1, 5] | solubility at 18 h [1, 6] | solubility at 18 h [1, 7] | solubility at 18 h [1, 8] | solubility at 18 h [1, 9] | solubility at 18 h [1, 10] | solubility at 18 h [1, 11] | IC50 [2] | Ratio hCT/hAmylin binding [2, 12] | Ratio hCT/hAmylin binding [2, 13] | Ratio hCT/hAmylin binding [2, 14] | Ratio hCT/hAmylin binding [2, 15] | Ratio hCT/hAmylin binding [2, 16] | IC50 ([3]; Table 7) | Ratio rCT/rAmylin binding [3, 17] | Ratio rCT/rAmylin binding [3, 18] | Ratio rCT/rAmylin binding [3, 19] | IC50 (rat calcitonin receptor) | Ratio hCT/hAmylin binding [2, 20] | other results
CC[C@H](C)[C@H](NC(=O)[C@H](C)NC(=O)CNC(=O)[C@H](Cc1ccccc1)NC(=O)[C@H](CC(N)=O)NC(=O)[C@@H]1CCCN1C(=O)[C@H](CO)NC(=O)[C@H](CO)NC(=O)[C@H](Cc1c[nH]cn1)NC(=O)[C@H](CCCNC(=N)N)NC(=O)[C@H](CC(C)C)NC(=O)[C@H](Cc1ccccc1)NC(=O)[C@H](CCC(=O)O)NC(=O)[C@H](C)NC(=O)[C@H](CC(C)C)NC(=O)[C@H](CCCNC(=N)N)NC(=O)[C@H](CCC(N)=O)NC(=O)[C@@H](NC(=O)[C@H](C)NC(=O)[C@@H]1CSSC[C@H](NC(=O)[C@H](CCCCN)NC(=O)CC[C@H](NC(=O)CCCCCCCCCCCCCCCCCCC(=O)O)C(=O)O)C(=O)N[C@@H](CC(N)=O)C(=O)N[C@@H]([C@@H](C)O)C(=O)N[C@@H](C)C(=O)N[C@@H]([C@@H](C)O)C(=O)N1)[C@@H](C)O)C(=O)N1CCC[C@H]1C(=O)N[C@@H](CO)C(=O)N[C@@H](CO)C(=O)N[C@H](C(=O)N[C@@H](CC(N)=O)C(=O)N[C@H](C(=O)NCC(=O)N[C@@H](Cc1c[nH]cn1)C(=O)N[C@@H](CC(N)=O)C(=O)N[C@H](C(=O)N[C@@H](Cc1ccc(O)cc1)C(N)=O)[C@@H](C)O)C(C)C)[C@@H](C)O [Example 17] ({C20 diacid-γGlu}-KCNTATCATQRLAEFLRHSSPNFGAIPSSTNVGHNTY-NH2; disulfide 2-7 (inferred)) | ≥ 200 µM | 159 µM (≈ 707 µg/mL) | ≥ 200 µM | ≥ 200 µM | 154 µM (≈ 685 µg/mL) | ≥ 200 µM | ≥ 200 µM | ≥ 200 µM | 0.878 nM | 12.5 | 12.5 | 12.5 | 12.5 | 12.5 | 2.71 nM | 35.9 | 35.9 | 35.9 | 97.2 nM | – | –
CC[C@H](C)[C@H](NC(=O)[C@H](C)NC(=O)CNC(=O)[C@H](Cc1ccccc1)NC(=O)[C@H](CC(N)=O)NC(=O)[C@@H]1CCCN1C(=O)[C@H](CO)NC(=O)[C@H](CO)NC(=O)[C@H](Cc1c[nH]cn1)NC(=O)[C@H](CCCNC(=N)N)NC(=O)[C@H](CC(C)C)NC(=O)[C@H](Cc1ccccc1)NC(=O)[C@H](CCC(=O)O)NC(=O)[C@H](C)NC(=O)[C@H](CC(C)C)NC(=O)[C@H](CCCNC(=N)N)NC(=O)[C@H](CCC(N)=O)NC(=O)[C@@H](NC(=O)[C@H](C)NC(=O)[C@@H]1CSSC[C@H](NC(=O)[C@@H](N)CCCCNC(=O)CC[C@H](NC(=O)CCCCCCCCCCCCCCCCCCC(=O)O)C(=O)O)C(=O)N[C@@H](CC(N)=O)C(=O)N[C@@H]([C@@H](C)O)C(=O)N[C@@H](C)C(=O)N[C@@H]([C@@H](C)O)C(=O)N1)[C@@H](C)O)C(=O)N1CCC[C@H]1C(=O)N[C@@H](CO)C(=O)N[C@@H](CO)C(=O)N[C@H](C(=O)N[C@@H](CC(N)=O)C(=O)N[C@H](C(=O)NCC(=O)N[C@@H](CO)C(=O)N[C@@H](Cc1c[nH]cn1)C(=O)N[C@H](C(=O)N[C@@H](Cc1ccc(O)cc1)C(N)=O)[C@@H](C)O)C(C)C)[C@@H](C)O [Example 128] (H-K([γGlu-C20 diacid])CNTATCATQRLAEFLRHSSPNFGAIPSSTNVGSHTY-NH2; disulfide 2-7 (inferred); N-terminus assumed) | ≥ 200 µM | ≥ 200 µM | ≥ 200 µM | ≥ 200 µM | ≥ 200 µM | ≥ 200 µM | ≥ 200 µM | ≥ 200 µM | – | 26.4 | 26.4 | 26.4 | 26.4 | 26.4 | 1.16 nM | 22.7 | 22.7 | 22.7 | 26.3 nM | 26.4 | Ratio hCT/hAmylin binding [2, 21]: 26.4
CC[C@H](C)[C@H](NC(=O)[C@H](C)NC(=O)CNC(=O)[C@H](Cc1ccccc1)NC(=O)[C@H](CC(N)=O)NC(=O)[C@@H]1CCCN1C(=O)[C@H](CO)NC(=O)[C@H](CO)NC(=O)[C@H](Cc1c[nH]cn1)NC(=O)[C@H](CCCNC(=N)N)NC(=O)[C@H](CC(C)C)NC(=O)[C@H](Cc1ccccc1)NC(=O)[C@H](CC(N)=O)NC(=O)[C@H](C)NC(=O)[C@H](CC(C)C)NC(=O)[C@H](CCCNC(=N)N)NC(=O)[C@H](CCC(N)=O)NC(=O)[C@@H](NC(=O)[C@H](C)NC(=O)[C@@H]1CSSC[C@H](NC(=O)[C@@H](N)CCCCNC(=O)CC[C@H](NC(=O)CC[C@H](NC(=O)CCCCCCCCCCCCCCCCCCC(=O)O)C(=O)O)C(=O)O)C(=O)N[C@@H](CC(N)=O)C(=O)N[C@@H]([C@@H](C)O)C(=O)N[C@@H](C)C(=O)N[C@@H]([C@@H](C)O)C(=O)N1)[C@@H](C)O)C(=O)N1CCC[C@H]1C(=O)N[C@@H](CO)C(=O)N[C@@H](CO)C(=O)N[C@H](C(=O)N1CCC[C@H]1C(=O)N[C@H](C(=O)NCC(=O)N1CCC[C@H]1C(=O)N[C@@H](CCCNC(=N)N)C(=O)N[C@H](C(=O)N[C@@H](Cc1ccc(O)cc1)C(N)=O)[C@@H](C)O)C(C)C)[C@@H](C)O [Example 119] (H-K([γGlu-γGlu-C20 diacid])CNTATCATQRLANFLRHSSPNFGAIPSSTPVGPRTY-NH2; disulfide 2-7) | 174 µM (≈ 791 µg/mL) | 112 µM (≈ 509 µg/mL) | ≥ 200 µM | 182 µM (≈ 827 µg/mL) | 32 µM (≈ 145 µg/mL) | 174 µM (≈ 791 µg/mL) | ≥ 200 µM | ≥ 200 µM | 0.88 nM | 48.6 | 48.6 | 48.6 | 48.6 | 48.6 | 0.381 nM | 137.4 | 137.4 | 137.4 | 52.4 nM | 48.6 | Ratio hCT/hAmylin binding [2, 21]: 48.6
